Laboratory results taken from PubChem BioAssay (NCI).
Values joined by “and” are separate entries in the source; they are usually repeats but may differ in a detail not shown here. Equal entries are not always repeated.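 Dose response: 5 concentrations. Exposure: 48 h. Format: 96-well plates. Endpoint: linear interpolation; highest concentration if not reached. GI50 is the concentration that inhibits growth by half. TGI is the concentration that stops growth completely.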

Key:
Experiment in all cases: NCI-60 cell line screen, 48 h
A498 renal = system: A498 renal
CAKI-1 renal = system: CAKI-1 renal
EKVX NSCLC = system: EKVX NSCLC
HCT-15 colon = system: HCT-15 colon
HS 578T breast = system: HS 578T breast
M14 melanoma = system: M14 melanoma
MALME-3M melanoma = system: MALME-3M melanoma
NCI-H522 lung = system: NCI-H522 lung
T-47D breast = system: T-47D breast
TK-10 renal = system: TK-10 renal

Row | SMILES | GI50 (A498 renal) | TGI (A498 renal) | GI50 (CAKI-1 renal) | TGI (CAKI-1 renal) | GI50 (EKVX NSCLC) | TGI (EKVX NSCLC) | GI50 (HCT-15 colon) | TGI (HCT-15 colon) | GI50 (HS 578T breast) | TGI (HS 578T breast) | GI50 (M14 melanoma) | TGI (M14 melanoma) | GI50 (MALME-3M melanoma) | TGI (MALME-3M melanoma) | GI50 (NCI-H522 lung) | TGI (NCI-H522 lung) | GI50 (T-47D breast) | TGI (T-47D breast) | GI50 (TK-10 renal) | TGI (TK-10 renal)
1 | COc1ccc(-n2cc(-c3cc(OC)c(OC)c(OC)c3)nc2SCc2ccccc2)cc1OC | > 100 µM | > 100 µM | > 96.6 µM | > 100 µM | 57.9 µM | > 100 µM | 33.3 µM | > 100 µM | > 100 µM | > 100 µM | > 91.6 µM | > 100 µM | > 100 µM | > 100 µM | 41.8 µM | > 100 µM | 12.3 µM | > 100 µM | > 100 µM | > 100 µM
2 | COc1ccc(C(=O)/C=C/c2ccc3c(c2)OCO3)c(OCc2ccccc2)c1 | – | > 100 µM | – | > 100 µM | – | > 100 µM | – | > 100 µM | – | > 100 µM | – | > 100 µM | – | > 100 µM | – | > 100 µM | – | > 100 µM | – | > 100 µM
3 | COc1cccc2c1C(=O)c1c(O)c3c(c(O)c1C2=O)C[C@@](O)(C(=O)CO)C[C@@H]3O[C@H]1C[C@H](N)[C@@H](O)[C@H](C)O1 | 0.134 µM | 1.06 µM | 1.32 µM | 30.7 µM | 1.2 µM | 16.1 µM | 2.99 µM | 50 µM | 0.257 µM | 3.3 µM | 0.281 µM | 1.16 µM | 0.145 µM | 0.718 µM | 0.101 µM | 0.89 µM | 0.128 µM | 3.19 µM | – | 10.5 µM
4 | NC1=C(c2nc(-c3ccccc3)cs2)C(c2ccc(Br)cc2)c2c(c3ccccc3oc2=O)O1 (stereo unspecified) | 33.9 µg/mL | > 150 µg/mL | 70 µg/mL | > 150 µg/mL | 50.2 µg/mL | > 150 µg/mL | 70.1 µg/mL | > 150 µg/mL | 30.4 µg/mL | 91.4 µg/mL | 90.1 µg/mL | > 150 µg/mL | > 150 µg/mL | > 150 µg/mL | 47.1 µg/mL | > 150 µg/mL | 44.3 µg/mL | > 150 µg/mL | > 150 µg/mL | > 150 µg/mL
5 | CN(C)CCCN1c2ccccc2C(C)(C)c2ccccc21 | – | 23 µM | – | 25.5 µM | – | 32.6 µM | – | 29.8 µM | – | 43.3 µM | – | 28.8 µM | – | 31 µM | – | 28.6 µM | – | 38.7 µM | – | 27.2 µM
6 | COc1ccc(/C=C(\C#N)n2nnc3ccccc32)cc1 | 0.188 µM | 0.779 µM | 0.0638 µM | > 84.6 µM | 0.431 µM | > 100 µM | 0.0682 µM | > 100 µM | 0.396 µM | > 100 µM | 0.071 µM | 2.02 µM | 0.418 µM | > 71.2 µM | 0.0336 µM | > 34.1 µM | 0.0865 µM | 72.9 µM | 2.22 µM | 58.6 µM
7 | COc1ccccc1N1CCN(CCc2c[nH]c3cc4c(cc23)OCO4)CC1 | 16.6 µM | 83 µM | 18.5 µM | 60.8 µM | 16.8 µM | 64.6 µM | 29.6 µM | > 100 µM | 20.1 µM | 70.9 µM | 11.3 µM | 40.7 µM | 27.9 µM | > 100 µM | 44.2 µM | > 100 µM | 19.8 µM | 77.3 µM | 27.1 µM | > 100 µM
8 | Oc1[nH]c2c(Br)cccc2c1C1=Nc2ccccc2/C1=N/OCCN1CCCC1 | 0.739 µM and 1.34 µM | 2.21 µM and 7.36 µM | 0.332 µM | 2.24 µM | 1.31 µM and 2.09 µM | > 100 µM | 0.719 µM and 0.496 µM | – | 1.2 µM | 3 µM | 1.94 µM | – | 1.16 µM | 4.84 µM | 0.847 µM | 3.4 µM | 3.51 µM | – | 2.58 µM and 1.8 µM | > 100 µM
9 | COc1cc(/C=N/NC(=O)c2cnn3c2NC(c2ccccc2)C3)ccc1Oc1ccccc1 (stereo unspecified) | 1.18 µM | 7.03 µM | 0.996 µM | 10.2 µM | 2.03 µM | 14.3 µM | 0.559 µM | 3.15 µM | 1.65 µM | 5.22 µM | 0.761 µM | 10.7 µM | 1.21 µM | 5.26 µM | 0.366 µM | 2.62 µM | 0.998 µM | 16.9 µM | 2.62 µM | 11.5 µM
10 | Cc1cc(Cc2cc(C)cc(C(C)(C)C)c2O)c(O)c(Cc2cc(C)cc(C(C)(C)C)c2O)c1 | – | 7.2 µM | – | 13.5 µM | – | 9 µM | – | 11.3 µM | – | 5.93 µM | – | 7.26 µM | – | 5.13 µM | – | 4.28 µM | – | 11.3 µM | – | 8.59 µM
11 | Cc1cc(=O)[nH]c2cc3c(c4c(n3Cc3ccc(Cl)cc3Cl)CC(C)(C)CC4=O)c(O)c12 | > 100 µM | > 100 µM | > 100 µM | > 100 µM | 36.4 µM | > 100 µM | > 100 µM | > 100 µM | 49.2 µM | > 100 µM | 71.3 µM | > 100 µM | 29.9 µM | 75.9 µM | > 100 µM | > 100 µM | > 100 µM | > 100 µM | > 100 µM | > 100 µM
12 | Cc1cc(NCc2cc(Nc3ccnc4cc(Cl)ccc34)ccc2F)nc(N2CCN(C)CC2)n1 | 1.54 µM | 3.22 µM | 1.67 µM | 4 µM | 2.91 µM | 12.6 µM | 1.34 µM | 3.45 µM | 1.87 µM | 5.21 µM | 1.56 µM | 3.13 µM | 1.84 µM | 3.66 µM | 2.22 µM | 4.79 µM | 2.1 µM | 6.13 µM | 2.03 µM | 5.49 µM
13 | Cc1cc2[nH]c(=O)c3c4ccccc4cn3c2cc1C | 21.5 µM | 39.6 µM | 5.33 µM | 17.8 µM | 13.6 µM | 31.9 µM | 6.18 µM | 22 µM | 25 µM | 59.9 µM | 13.6 µM | 26.9 µM | 22.2 µM | 37.5 µM | 14.5 µM | 31.1 µM | 15.4 µM | 50 µM | 19.7 µM | 34.2 µM
14 | CN(C)CC1C(=O)O[C@H]2[C@H]1CC/C(COC(=O)c1cc3ccccc3[nH]1)=C\CC[C@@]1(C)O[C@@H]21 (stereo partly specified) | 11.1 µM | 23.9 µM | 1.31 µM | 2.85 µM | 3.16 µM | 12.5 µM | 0.629 µM | 2.28 µM | 2.93 µM | 13.6 µM | 1.76 µM | 4.29 µM | 1.8 µM | 4.56 µM | 1.32 µM | 3.05 µM | 2.19 µM | 5.54 µM | 2.04 µM | 3.98 µM
